Structures are written as SMILES.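 Following 48 hours of exposure in 96-well plates, responses at five concentrations were used to interpolate endpoints linearly. Definition used: TGI = concentration required for complete inhibition of growth.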

Among the test systems are NCI-H460 lung; MDA-MB-435; RXF 393 renal; CAKI-1 renal.
What all share (test): NCI-60 cell line screen, 48 h

On to `COc1cc2c(cc1C)NC(=O)/C2=C\c1cccnc1`, for which the TGI worked out at 85.4 µM in the assay with NCI-H460 lung, 50.1 µM in the assay on MDA-MB-435, 43.1 µM in the assay with RXF 393 renal and 36.2 µM with CAKI-1 renal.

`O=c1ccc(-c2ccc(-n3ccnc3)cc2)nn1CCO`: the TGI in the assay on NCI-H460 lung, with MDA-MB-435, with RXF 393 renal and in the assay with CAKI-1 renal was > 100 µM each time.

For the compound `CSC1=C(C)S/C(=C\c2ccc(/C=C3\SC(C)=C(SC)S3)cc2)S1`, the TGI in the assay on NCI-H460 lung is > 100 µM; with MDA-MB-435, > 100 µM; in the assay with RXF 393 renal it was 79 µM; in the assay with CAKI-1 renal it was > 100 µM.

In the case of `CCC(C)C1=C(O)[N+]2([O-])Oc3ccc(-c4c(O)c(O)c(-c5ccc(O)cc5)c(OC(C)=O)c4OC(C)=O)cc3OC2(C(C)CC)C(=O)N1O` (stereo not given), the TGI with NCI-H460 lung, with MDA-MB-435, with RXF 393 renal and in the assay with CAKI-1 renal was > 50 µM in each case.

On to `COC1/C=C/C(C)C(C(C)C(OC)C(C)CCC(=O)C(C)C(CC(=O)O)OC)OC(=O)/C=C/C=C(\C)CC(OC)C(OC)C2=CC(=O)O[C@@H](C(C)C(OC)CC(OC)/C=C/C(C)C(O)C1)[C@H]2O` (stereo not given in full), for which the TGI was > 1.07 µM with NCI-H460 lung, 1.02 µM in the assay with MDA-MB-435 and > 1.07 µM in the assay with CAKI-1 renal.

As to `COC(=O)/N=[N+](\[O-])C(c1ccc(Cl)cc1)c1ccc(Cl)cc1`, the TGI in the assay with NCI-H460 lung was > 100 µM; in the assay on MDA-MB-435, > 100 µM; in the assay with RXF 393 renal it was 84.1 µM; in the assay with CAKI-1 renal it was 34.5 µM.

On to `CC(C)C(=O)CC(Sc1ccc(N)cc1)c1ccccc1` (stereo not given), for which the TGI in the assay with NCI-H460 lung is 74.9 µM; with MDA-MB-435, 39.8 µM; with RXF 393 renal, 89.1 µM; in the assay with CAKI-1 renal, > 100 µM.

Turning to `O=S(=O)(O)c1ccc(N=Nc2c(O)ccc3ccccc23)cc1`, the TGI in the assay on NCI-H460 lung, in the assay on MDA-MB-435, in the assay on RXF 393 renal and in the assay with CAKI-1 renal was > 100 µM throughout.

`CCOC(=O)Nn1cnnc1Cc1ccccc1`: the TGI in the assay on NCI-H460 lung, in the assay with MDA-MB-435 and in the assay on CAKI-1 renal was > 100 µM each time.

On to `CC(=O)N1c2ccccc2C2=NN=C(N(C)C)SC21` (stereo not given), for which the TGI with NCI-H460 lung was 13.3 µM; in the assay on MDA-MB-435, 31.3 µM.

For the compound `COC(=O)C1=C(O)C(C(=O)OC)[C@]2(O)[C@H](C(=O)OC)[C@H]1C[C@@H](c1ccc(Cl)cc1Cl)[C@H]2C(=O)OC` (stereo not given in full), the TGI was 23.2 µM in the assay with NCI-H460 lung, 21.2 µM in the assay on MDA-MB-435, 33.7 µM with RXF 393 renal and > 100 µM in the assay with CAKI-1 renal.

Regarding `C[C@@H]1C(=O)O[C@@H]2C[C@@]1(C)[C@@H]1C(=O)C3(O)OC14C2(C)OC(=O)[C@@]4(O)CCC1C3C(O)C=C2CC=CC(=O)[C@@]21C` (stereo not given in full), the TGI in the assay with NCI-H460 lung is > 100 µM; in the assay on MDA-MB-435 it was 79.4 µM; in the assay on RXF 393 renal, 32.8 µM; in the assay on CAKI-1 renal, > 100 µM.

For `CC1(C)C2CC1C(/C=N\OCC(=O)O)=CC2=O` (stereo not given), the TGI in the assay on NCI-H460 lung, in the assay on MDA-MB-435, in the assay with RXF 393 renal and with CAKI-1 renal was > 100 µM throughout.

Turning to `Cc1ccc([N+](=O)[O-])cc1S(=O)(=O)Nc1ccc(C2=NOC(c3ccccc3)C2)cc1` (stereo not given), the TGI in the assay on NCI-H460 lung is 29.1 µM; in the assay on RXF 393 renal, 9.44 µM; in the assay with CAKI-1 renal, 32.7 µM.

`N#CCN(Cc1ccccc1)[C@H]1CCC[C@]1(O)/C=C/c1ccc2c(c1)OCO2`: the TGI in the assay on NCI-H460 lung is 38.2 µM; in the assay on MDA-MB-435, 53.2 µM; in the assay on RXF 393 renal, 77.3 µM; in the assay on CAKI-1 renal, > 100 µM.

Regarding `CC1CC/C(=C\c2ccc(Cl)cc2)C(=O)/C1=C\c1ccc(Cl)cc1` (stereo not given), the TGI with MDA-MB-435 is > 100 µM; with RXF 393 renal it was 71.7 µM; in the assay with CAKI-1 renal it was 44.9 µM.

Turning to `Clc1ccccc1-c1nn2c(CCCCCCCCc3nnc4sc(-c5ccccc5Cl)nn34)nnc2s1`, the TGI in the assay on NCI-H460 lung, with MDA-MB-435, with RXF 393 renal and in the assay with CAKI-1 renal was > 100 µM throughout.

For `CCCCC1=C(C(=O)N2CCOCC2)C2(OCCO2)C1Cl` (stereo not given), the TGI in the assay on MDA-MB-435 is 67.8 µM; in the assay with RXF 393 renal it was 81.6 µM; with CAKI-1 renal it was 86.5 µM.

On to `CCOC(=O)C12C3CCC1C2C(=O)C3` (stereo not given), for which the TGI with NCI-H460 lung, in the assay on MDA-MB-435, in the assay on RXF 393 renal and with CAKI-1 renal was > 100 µM throughout.

For `O=[N+]([O-])/C(C(Cl)=C(Cl)Cl)=C(\Nc1cccc2cccnc12)Sc1ccccc1`, the values for the TGI in the assay with NCI-H460 lung, in the assay with MDA-MB-435 and with CAKI-1 renal were > 100 µM, 42.7 µM and 46.7 µM, respectively.

`CC(C)/C(Cl)=N/OC(NC(=O)Nc1ccc(Cl)c(Cl)c1)(C(F)(F)F)C(F)(F)F`: the TGI with NCI-H460 lung worked out at 56.4 µM; in the assay with MDA-MB-435 it was 33.8 µM; with RXF 393 renal it was 9.23 µM; with CAKI-1 renal it was 3.61 µM.

For `COc1ccc(C[C@H]2NC[C@H](OC(C)=O)[C@H]2OC(C)=O)cc1`, the TGI is 1.44 µM with NCI-H460 lung, 1.23 µM in the assay on MDA-MB-435, 0.651 µM in the assay on RXF 393 renal and 0.544 µM in the assay with CAKI-1 renal.

On to `Cc1ccc(-n2nnc3c(NNc4ccccc4)n[nH]c(=O)c32)cc1`, for which the TGI in the assay on NCI-H460 lung, with MDA-MB-435 and in the assay with CAKI-1 renal was > 100 µM each time.

Take `COC(=O)C1=C(O)C(C(=O)OC)[C@]2(O)[C@H](C(=O)OC)[C@H]1C[C@@H](c1ccc(O)cc1)[C@H]2C(=O)OC` (stereo not given in full): the TGI with NCI-H460 lung is 74.5 µM; in the assay on MDA-MB-435 it was > 100 µM; with RXF 393 renal it was 45.1 µM; in the assay on CAKI-1 renal it was > 100 µM.

Regarding `c1ccc2nc3c(nc2c1)sc1nc2ccccc2n13`, the TGI in the assay with NCI-H460 lung, in the assay on MDA-MB-435, in the assay with RXF 393 renal and with CAKI-1 renal was > 100 µM throughout.

For the compound `Cc1cc2c(c(C=Nc3ccc(N(C)C)cc3)c1)OC1(C=C2)Oc2ccccc2C(=O)N1C` (stereo not given), the TGI in the assay with NCI-H460 lung is 36.5 µM; with MDA-MB-435, 26.7 µM; with RXF 393 renal, > 58 µM; with CAKI-1 renal it was 28 µM.

(Values after PubChem BioAssay (NCI).)
